Patent US20080124366A1, “Methods and Compositions for Treating Tumors” (priority 2006, published 2008)
“Also recorded” adds a separate entry of the source.

B1: INF-gamma: interferon-gamma in which cancer stem cells were incubated (protein, UniProt P01579 24-161, looked up)
Interferon gamma: QDPYVKEAENLKKYFNAGHSDVADNGTLFLGILKNWKEESDRKIMQSQIVSFYFKLFKNFKDDQSIQKSVETIKEDMNVKFFNSNKKKRDDFEKLTNYSVTDLNVQRKAIHELIQVMAELSPAAKTGKRKRSQMLFRG

Key:
[1] = test system: intracranial GL261-Luc glioma; test: s.c. vaccination of mice bearing intracranial GL261-Luc glioma, bioluminescent imaging and survival (Example 5); type: in vivo, C57BL/6 mice; details: s.c. days 4, 11, 18
Description: Glioma model and in vivo imaging. Six to seven week old female C57BL/6 mice were purchased from Jackson Laboratory and maintained in a specific pathogen free (SPF) facility according to the guidelines of the University of Minnesota Animal Care and Use Committee (IACUC). For intracranial tumor inoculations, animals were deeply anesthetized with a ketamine/xylazine cocktail solution (53.7 mg/ml ketamine, 9.26 mg/ml xylazine) delivered at 1 ml/kg. 10,000 GL261-Luc cells in 1 μl of PBS were implanted stereotactically into the right striatum; coordinates were 2.2 mm lateral, and 0.5 mm posterior of bregma, and 3 mm ventral from the cortical surface of the brain. For imaging mice were deeply anesthetized by i.p. injection with avertin (225 mg/kg) and injected with 100 μl of luciferin (substrate for luciferase enzyme; 28.5 mg/ml, Xenogen®, Hopkinton, Mass.). Mice were imaged five minutes after luciferin injection using the Ivis 50 system (Xenogen®). […] Luciferase activity was analyzed using living image software (version 2.5; Xenogen®) according to the manufacturer's instructions. […]
Statistical analysis. […] Differences in animal survival between treatment groups were evaluated by log-rank statistical analysis with Sigmastat software (Systat Software, Inc. San Jose, Calif.); only P values <0.05 were considered significant.

GL261 mouse glioma model = test: Intratumoral CpG ODN administration in GL261 mouse glioma model; type: in vivo; details: weakly immunogenic GL261 / GL261-Luc model
[2] = test system: cervical lymph node T cells and DCs; test: Flow cytometry of draining cervical lymph nodes after s.c. vaccination; type: in vivo, C57BL/6 mice; details: vs lysate or normal
Description: Flow cytometry. Normal B6 mice were vaccinated two times, one week apart with CpG/lysate, CpG, lysate, or were not vaccinated as the controls (n=4/group). Six days after the last vaccination, the left and right cervical lymph nodes of each mouse were harvested, counted for LN cell numbers, and analyzed by flow cytometry with various monoclonal antibodies (1 μg/10^6 cells) including FITC-anti-CD3, PE-anti-CD8, APC-anti-CD4, FITC-anti-CD1 1c, PE-anti-CCR7, and APC-anti-CD86 (eBioscience, San Diego, Calif.).
The ability of CpG ODN to activate and mature DCs to elicit T cell-mediated responses has been established. An experiment was conducted to characterize the effects of CpG/lysate vaccination on DCs and T cells in the draining lymph nodes. Normal B6 mice were vaccinated two times, one week apart, by subcutaneous (s.c.) injection with CpG ODN, tumor lysate, or CpG/lysate (n=4/group). Six days after the second vaccination, the draining cervical lymph nodes of each mouse were harvested, counted for total cell number, and analyzed by flow cytometry.

[3] = test system: Human brain tumor stem cells; test: Incubation of human brain tumor stem cells in INF-gamma; type: cell-based

Row | Molecule | effect on tumor growth or survival [1] | efficacy of intratumoral administration (GL261 mouse glioma model) | number of activated (CD11c+CD86+/CCR7+) DCs in draining lymph nodes [2] | immunogenicity of cancer stem cells after incubation [3]
1 | 5′-TCGTCGTTTTGTCGTTTTGTCGTT-3′ [CpG ODN] | no effect | not effective; also recorded: failed to cause sustained tumor regression | significant increase | 
2 | B1 |  |  |  | restores their immunogenecity
